Assay results published in ChEMBL document CHEMBL1177739, “Fast-forwarding hit to lead: aurora and epidermal growth factor receptor kinase inhibitor lead identification” (J Med Chem, 2010).

How the values were obtained:
[1] = target: T1, Aurora kinase A (Homo sapiens, UniProt O14965)
T1 sequence (O14965 whole entry): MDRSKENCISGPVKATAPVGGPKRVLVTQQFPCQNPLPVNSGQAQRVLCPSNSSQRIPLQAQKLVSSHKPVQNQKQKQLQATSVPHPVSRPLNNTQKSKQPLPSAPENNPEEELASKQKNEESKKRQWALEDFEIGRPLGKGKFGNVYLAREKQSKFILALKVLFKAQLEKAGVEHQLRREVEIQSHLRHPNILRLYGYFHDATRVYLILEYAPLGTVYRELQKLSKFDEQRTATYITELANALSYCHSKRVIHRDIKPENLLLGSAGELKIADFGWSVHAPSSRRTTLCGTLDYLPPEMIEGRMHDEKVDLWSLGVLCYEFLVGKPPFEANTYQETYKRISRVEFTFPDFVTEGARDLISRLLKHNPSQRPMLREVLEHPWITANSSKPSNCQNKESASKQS

[2] = tested on: HCT-116; assay: Cytotoxicity against human HCT116 cells by MTS assay; format: functional, cell-based
[3] = target: T2, Aurora kinase A (Homo sapiens) (UniProt O14965); assay: Inhibition of Aurora A at 10 uM
T2 sequence (whole entry): T1 sequence (O14965 whole entry)

[4] = cells; conditions: Homo sapiens, HCC827, 96 h
Description: Antiproliferative activity against human HCC827 cells after 96 hrs by MTS assay

[5] = target: T3, Epidermal growth factor receptor (Homo sapiens, UniProt P00533); conditions: 20 uM
T3 sequence (P00533 whole entry): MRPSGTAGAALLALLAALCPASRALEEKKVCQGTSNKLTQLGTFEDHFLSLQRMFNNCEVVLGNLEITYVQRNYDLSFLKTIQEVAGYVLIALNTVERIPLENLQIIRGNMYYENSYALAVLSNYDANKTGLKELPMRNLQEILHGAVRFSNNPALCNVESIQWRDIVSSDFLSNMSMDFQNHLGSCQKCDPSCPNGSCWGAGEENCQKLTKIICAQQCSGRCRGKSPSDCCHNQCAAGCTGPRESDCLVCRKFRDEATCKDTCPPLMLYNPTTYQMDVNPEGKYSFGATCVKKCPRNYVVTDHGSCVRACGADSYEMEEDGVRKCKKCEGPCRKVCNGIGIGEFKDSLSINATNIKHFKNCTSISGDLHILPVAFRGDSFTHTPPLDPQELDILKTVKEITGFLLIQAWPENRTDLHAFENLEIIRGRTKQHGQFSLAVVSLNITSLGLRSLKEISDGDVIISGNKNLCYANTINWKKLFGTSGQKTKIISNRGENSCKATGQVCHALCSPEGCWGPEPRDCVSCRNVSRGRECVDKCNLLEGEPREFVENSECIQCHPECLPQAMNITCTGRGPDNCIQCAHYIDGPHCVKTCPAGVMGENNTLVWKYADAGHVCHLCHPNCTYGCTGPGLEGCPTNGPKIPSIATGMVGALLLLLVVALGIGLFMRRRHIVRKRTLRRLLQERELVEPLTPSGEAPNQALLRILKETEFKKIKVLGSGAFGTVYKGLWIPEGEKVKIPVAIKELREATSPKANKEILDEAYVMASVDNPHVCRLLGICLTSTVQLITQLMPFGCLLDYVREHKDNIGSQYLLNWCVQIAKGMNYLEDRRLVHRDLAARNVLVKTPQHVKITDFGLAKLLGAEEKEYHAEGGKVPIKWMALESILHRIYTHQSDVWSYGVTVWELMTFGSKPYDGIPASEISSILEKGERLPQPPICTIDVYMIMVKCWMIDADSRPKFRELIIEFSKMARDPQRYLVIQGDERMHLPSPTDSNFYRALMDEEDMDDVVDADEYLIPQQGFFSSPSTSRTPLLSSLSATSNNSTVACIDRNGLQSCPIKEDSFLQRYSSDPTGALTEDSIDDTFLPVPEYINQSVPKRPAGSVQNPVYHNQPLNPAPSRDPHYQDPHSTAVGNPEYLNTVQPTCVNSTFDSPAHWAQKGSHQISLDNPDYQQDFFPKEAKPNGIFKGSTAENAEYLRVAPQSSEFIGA
Description: Inhibition of GST-tagged EGFR expressed in Escherichia coli at 20 uM

[6] = target: Epidermal growth factor receptor (Homo sapiens, UniProt P00533, L858R/T790M)
Chain of Epidermal growth factor receptor (Homo sapiens, UniProt P00533, L858R/T790M) (P00533 25-1210 T790M/L858R limits assumed): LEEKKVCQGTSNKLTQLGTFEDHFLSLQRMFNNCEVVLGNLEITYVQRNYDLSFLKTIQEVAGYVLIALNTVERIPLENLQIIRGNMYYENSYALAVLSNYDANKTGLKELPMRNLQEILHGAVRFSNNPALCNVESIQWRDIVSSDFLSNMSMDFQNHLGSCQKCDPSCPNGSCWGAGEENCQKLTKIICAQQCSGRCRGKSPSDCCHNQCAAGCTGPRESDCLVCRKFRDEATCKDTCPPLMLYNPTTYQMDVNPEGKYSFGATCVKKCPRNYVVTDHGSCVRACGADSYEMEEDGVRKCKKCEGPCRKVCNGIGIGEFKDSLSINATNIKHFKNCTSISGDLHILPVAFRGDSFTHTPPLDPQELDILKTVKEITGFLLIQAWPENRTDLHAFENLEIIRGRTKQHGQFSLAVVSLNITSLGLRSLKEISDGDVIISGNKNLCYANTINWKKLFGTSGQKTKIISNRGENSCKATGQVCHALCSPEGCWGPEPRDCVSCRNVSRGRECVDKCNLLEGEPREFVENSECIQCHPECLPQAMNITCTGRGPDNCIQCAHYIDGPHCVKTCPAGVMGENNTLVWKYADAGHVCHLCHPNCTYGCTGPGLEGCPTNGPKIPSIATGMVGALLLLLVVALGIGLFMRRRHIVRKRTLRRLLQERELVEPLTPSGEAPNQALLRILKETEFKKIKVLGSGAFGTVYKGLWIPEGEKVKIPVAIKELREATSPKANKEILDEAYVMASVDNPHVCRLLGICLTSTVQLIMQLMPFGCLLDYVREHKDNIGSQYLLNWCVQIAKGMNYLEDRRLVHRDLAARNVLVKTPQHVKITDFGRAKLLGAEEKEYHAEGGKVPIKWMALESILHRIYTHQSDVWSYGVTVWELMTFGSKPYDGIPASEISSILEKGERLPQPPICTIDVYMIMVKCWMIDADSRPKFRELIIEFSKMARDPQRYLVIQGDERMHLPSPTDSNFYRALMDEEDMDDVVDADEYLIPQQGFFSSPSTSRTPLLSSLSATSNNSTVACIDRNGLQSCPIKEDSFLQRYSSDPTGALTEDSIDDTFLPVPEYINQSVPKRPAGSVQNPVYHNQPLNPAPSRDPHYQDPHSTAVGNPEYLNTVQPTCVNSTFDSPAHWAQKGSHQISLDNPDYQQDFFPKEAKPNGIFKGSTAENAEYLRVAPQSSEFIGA

[7] = target: T3, Epidermal growth factor receptor
Description: Inhibition of GST-tagged EGFR expressed in Escherichia coli

SMILES | IC50 [1] | IC50 [2] | other results
OC1CCN(c2ncnc3oc(-c4ccccc4)c(-c4ccccc4)c23)CC1 | 807 nM | – | inhibition [3]: 85.8%
CCOC(=O)CCNc1ncnc2oc(-c3ccccc3)c(-c3ccccc3)c12 | 796 nM | > 10 µM | –
OC[C@@H](Nc1ncnc2oc(-c3ccccc3)c(-c3ccccc3)c12)c1ccccc1 | – | – | IC50 [4]: 518 nM; inhibition [5]: > 80%; IC50 [6]: > 10 µM; IC50 [7]: 223 nM
O=C(CCNc1ncnc2oc(-c3ccccc3)c(-c3ccccc3)c12)Nc1ccccc1 | > 10000 nM | > 10 µM | –
COC1C=CC(CNc2ncnc3oc(-c4ccccc4)c(-c4ccccc4)c23)(OC)O1 (configuration not stated) | 827 nM | – | –
Oc1ccc(CCNc2ncnc3oc(-c4ccccc4)c(-c4ccccc4)c23)cc1 | 640 nM | – | –
CC1CN(c2ncnc3oc(-c4ccccc4)c(-c4ccccc4)c23)CC(C)N1 (configuration not stated) | 334 nM | – | –
O=C(Nc1ccccc1)Nc1ccc(CCNc2ncnc3oc(-c4ccccc4)c(-c4ccccc4)c23)cc1 | – | 0.4 µM | –
c1ccc(-c2oc3ncnc(NCCCn4ccnc4)c3c2-c2ccccc2)cc1 | 3310 nM | – | inhibition [3]: 73.8%
C=CC(=O)Nc1ccc(-c2c(-c3ccccc3)oc3ncnc(N[C@H](CO)c4ccccc4)c23)cc1 | – | – | IC50 [4]: 394 nM; IC50 [6]: > 10 µM; IC50 [7]: 82 nM
c1ccc(-c2oc3ncnc(NCCc4ccccn4)c3c2-c2ccccc2)cc1 | 535 nM | – | –
C[C@@H](O)CNc1ncnc2oc(-c3ccccc3)c(-c3ccccc3)c12 | 973 nM | – | –
c1ccc(-c2oc3ncnc(NCCc4c[nH]cn4)c3c2-c2ccccc2)cc1 | – | – | inhibition [3]: 91.4%
Cc1cc(Nc2cc(N3CCN(C)CC3)nc(Sc3ccc(NC(=O)C4CC4)cc3)n2)n[nH]1 [TOZASERTIB] | – | 0.12 µM | –

Second part, led by results:

IC50 [1] | SMILES | IC50 [2] | other results
5830 nM | O=S(=O)(Nc1ccc(CCNc2ncnc3oc(-c4ccccc4)c(-c4ccccc4)c23)cc1)c1ccccc1 | > 10 µM | –
640 nM | Nc1ccc(CCNc2ncnc3oc(-c4ccccc4)c(-c4ccccc4)c23)cc1 | > 10 µM | –
792 nM | C[C@@H](CO)Nc1ncnc2oc(-c3ccccc3)c(-c3ccccc3)c12 | – | –
1770 nM | c1ccc(-c2oc3ncnc(NCCN4CCOCC4)c3c2-c2ccccc2)cc1 | – | inhibition [3]: 81.7%
296 nM | c1ccc(-c2oc3ncnc(NCCc4cnc[nH]4)c3c2-c2ccccc2)cc1 | – | –
760 nM | OCCOCCNc1ncnc2oc(-c3ccccc3)c(-c3ccccc3)c12 | – | –
304 nM | O=C(Nc1ccc(CCNc2ncnc3oc(-c4ccccc4)c(-c4ccccc4)c23)cc1)c1ccccc1 | > 10 µM | –
945 nM | Nc1ccc(CNc2ncnc3oc(-c4ccccc4)c(-c4ccccc4)c23)cc1 | – | –
309 nM | OCCNc1ncnc2oc(-c3ccccc3)c(-c3ccccc3)c12 | – | inhibition [3]: 98.2%
